Measurements reported in PubChem BioAssay (NCI).
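Grown in 96-well plates, cells were treated for 48 hours with each compound at five concentrations. Insufficient inhibition: endpoint recorded as highest concentration tested. GI50 is the concentration that inhibits growth by half. At the TGI there is no net growth.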

Legend:
Test in all cases: DTP human tumour cell line panel, 48 h
PC-3 prostate = system: PC-3 prostate
OVCAR-8 ovarian = system: OVCAR-8 ovarian
SK-MEL-28 melanoma = system: SK-MEL-28 melanoma
SR leukemia = system: SR leukemia
KM12 colon = system: KM12 colon
U251 CNS = system: U251 CNS
SW-620 colon = system: SW-620 colon
NCI-H522 lung = system: NCI-H522 lung
SN12C renal = system: SN12C renal
SNB-75 CNS = system: SNB-75 CNS
RXF 393 renal = system: RXF 393 renal
MDA-MB-435 = system: MDA-MB-435
A498 renal = system: A498 renal
SF-295 CNS = system: SF-295 CNS
HT29 colon = system: HT29 colon
BT-549 breast = system: BT-549 breast
HOP-62 NSCLC = system: HOP-62 NSCLC
OVCAR-4 ovarian = system: OVCAR-4 ovarian
NCI-H226 lung = system: NCI-H226 lung
UACC-257 melanoma = system: UACC-257 melanoma
EKVX NSCLC = system: EKVX NSCLC
A549 NSCLC = system: A549 NSCLC
OVCAR-3 ovarian = system: OVCAR-3 ovarian
TK-10 renal = system: TK-10 renal
MALME-3M melanoma = system: MALME-3M melanoma
CAKI-1 renal = system: CAKI-1 renal
UACC-62 melanoma = system: UACC-62 melanoma
HOP-92 NSCLC = system: HOP-92 NSCLC
SF-539 CNS = system: SF-539 CNS

CN(C)CCCOc1c2ccccc2nc2c1oc1ccc(Cl)cc12
TGI (PC-3 prostate): 12.3 µM
GI50 (OVCAR-8 ovarian): 3.28 µM
TGI (OVCAR-8 ovarian): 14.2 µM
GI50 (SK-MEL-28 melanoma): 4.56 µM
TGI (SK-MEL-28 melanoma): 16.5 µM
GI50 (SR leukemia): 3.02 µM
TGI (SR leukemia): 12.2 µM
GI50 (KM12 colon): 4.18 µM
TGI (KM12 colon): 18.5 µM
GI50 (U251 CNS): 3.36 µM
TGI (U251 CNS): 13.7 µM
GI50 (SW-620 colon): 1.92 µM
TGI (SW-620 colon): 10.1 µM
GI50 (NCI-H522 lung): 2.76 µM
TGI (NCI-H522 lung): 11.1 µM
GI50 (SN12C renal): 3.01 µM
TGI (SN12C renal): 14.1 µM
GI50 (SNB-75 CNS): 2.6 µM
TGI (SNB-75 CNS): 11.8 µM
GI50 (RXF 393 renal): 2.58 µM
TGI (RXF 393 renal): 8.7 µM
GI50 (MDA-MB-435): 3.44 µM
TGI (MDA-MB-435): 12.7 µM
GI50 (A498 renal): 10.4 µM
TGI (A498 renal): 23.6 µM
GI50 (SF-295 CNS): 3.82 µM
TGI (SF-295 CNS): 15 µM
GI50 (HT29 colon): 2.56 µM
TGI (HT29 colon): 11.7 µM
GI50 (BT-549 breast): 5.17 µM
TGI (BT-549 breast): 18.5 µM
GI50 (HOP-62 NSCLC): 3.66 µM
TGI (HOP-62 NSCLC): 15.5 µM
GI50 (OVCAR-4 ovarian): 2.42 µM
TGI (OVCAR-4 ovarian): 7.45 µM
GI50 (NCI-H226 lung): 3.02 µM
TGI (NCI-H226 lung): 9.95 µM
GI50 (UACC-257 melanoma): 3.44 µM
TGI (UACC-257 melanoma): 13.3 µM
GI50 (EKVX NSCLC): 3.68 µM
TGI (EKVX NSCLC): 14.7 µM
GI50 (A549 NSCLC): 2.8 µM
TGI (A549 NSCLC): 10.6 µM
GI50 (OVCAR-3 ovarian): 5.2 µM
TGI (OVCAR-3 ovarian): 17.5 µM
GI50 (TK-10 renal): 5.16 µM
TGI (TK-10 renal): 17.1 µM
GI50 (MALME-3M melanoma): 2.77 µM
TGI (MALME-3M melanoma): 9.64 µM
GI50 (CAKI-1 renal): 2.63 µM
TGI (CAKI-1 renal): 11.3 µM
GI50 (UACC-62 melanoma): 5.11 µM
TGI (UACC-62 melanoma): 19.1 µM
GI50 (HOP-92 NSCLC): 1.75 µM
TGI (HOP-92 NSCLC): 8.01 µM
GI50 (SF-539 CNS): 3.24 µM
TGI (SF-539 CNS): 13 µM
